# Test: Storage stability of liquid compositions, 8 weeks at 40° C., loss by HPLC
# Assay type: physicochemical
# Details: same inert ingredients as Composition #7 of Table 3; aged 8 weeks at 40° C.
# Description: To test stability, the compositions were sealed in a container and stored for 8 weeks at 40° C. The relative percentage loss of halosulfuron-methyl was calculated using high performance liquid chromatography (HPLC). The samples were extracted with solvents and then analyzed with reverse phase HPLC equipped with UV detector. The response from the detector are peak areas (mAu*s). The peak areas were correlated with percentage active ingredients through a standard calibration curve. The percentage of pesticide was calculated through the calibration curve. Chemically stable compositions are those compositions that had less than 5% (w/w) relative loss of halosulfuron-methyl after 8 weeks of storage at 40° C.
# The compositions described herein lose 5% (w/w) or less of the pesticide after storing the liquid composition for 8 weeks at 40° C. in a sealed container. Alternatively, the compositions described herein comprise at least 95% (w/w) of the pesticide after storing the liquid composition for 8 weeks at 40° C. in a sealed container. The percent loss is measured by quantitative chromatography, such as High Performance Liquid Chromatography (HPLC).
smiles,measurement,value
"COC(=O)c1sccc1S(=O)(=O)NC(=O)Nc1nc(C)nc(OC)n1 [Thifensulfuron-methyl, thifensulfuron-methyl]",relative loss of thifensulfuron-methyl,less than 5 % w/w

# Reference: patent publication US20220132854A1, “STABLE LIQUID COMPOSITIONS AND METHODS OF USING THE SAME” (priority 2019, published 2022)
